Activity calls are given as the source filed them. No cut-off for these calls is given here.
How the values were obtained:
[1] = test system: Plasmodium falciparum; experiment: Antimalarial activity against Plasmodium falciparum assessed as growth inhibition at 0.2 uM; type: functional, organism-based
[2] = test system: Plasmodium falciparum; experiment: Antimalarial activity against Plasmodium falciparum assessed as growth inhibition at 25 nM; type: functional, organism-based

CCC(C)C(=O)O[C@H]1C(=O)O[C@@H]2C[C@H]3C(C)=C[C@H](O)[C@@H](O)[C@]3(C)[C@H]3[C@@]4(O)OC[C@]32[C@@H]1[C@@H](C)[C@H]4O (some centres not stated)
growth inhibition (GI) [1]: Active

CCN(CC)CCCC(C)Nc1ccnc2cc(Cl)ccc12 (configuration not stated)
growth inhibition (GI) [2]: Active
